Measurements published in patent US20180185520A1, “COLLAGEN IMAGING COMPOSTIONS” (Collagen Medical, LLC, priority 2015, published 2018).

Legend:
[1] = molecular target: T1, rat collagen (acid soluble, type I, rat tail) (Rattus norvegicus, UniProt P02454+P02466); assay: Collagen binding assay, dried rat collagen in microtiter plate; conditions: 37° C., pH 7.4
T1 construct: purchased Millipore Inc 08-115; host or cells: rat tail
Method: 10 ml of a 3.79 mg/mL solution of rat collagen (acid soluble, type I, rat tail, Millipore Inc, cat#08-115) is dialyzed against 10 mM Phosphate (NaH2PO4), pH 4.2 at 4° C. with three changes of the dialysis buffer.
Ice-cold 1×PBS pH 10.8 is added to the collagen solution for a final collagen concentration of 10 μM, pH 7.4. Collagen solutions are gelled and dried down in the wells of a 96 well microtiter plate (Corning Polystyrene Flat Bottom, cat#3641). 70 μl of 10 μM collagen is aliquoted into each well in every other lane in the plate (48 wells) and the plate is incubated at 37° C. for 18 hours to form a gel and evaporate to dryness. […] The final well content of gelled collagen is measured by determination of hydroxyproline and is around 180 μg/ml.
a serial dilution of 0.2 μM-30 μM of the peptide chelate is prepared in PBS, pH 7.4 ([…], of solution for each concentration). […] The concentration of free, unbound compound in the sample supernatants and the concentration of compound in the reserved (total) sample are determined by ICP-MS (Agilent 7500, gadolinium concentration). The concentration of compound bound to collagen is determined as [bound]=[total]−[unbound].
The binding of compounds to human, rat and dog collagen (5 μM) was measured over the concentration range 0.2-5 μM of Comp ID Nos.: 1-4. […]

[2] = system: myocardium; type: in vivo; conditions: Compound ID No. 1 7.5 μmol/kg (canine) vs EP-3600 12.3 μmol/kg (pig)
Method: To mimic severe ischemia, a canine model was used in which an inflatable variable vascular occluder was placed around the left anterior descending coronary artery (LAD) to allow occlusion and reperfusion. Imaging was performed on a 3T clinical scanner 4 days after implantation of the occluder. The conventional saturation recovery pulse sequence for stress perfusion imaging was compared with a segmented inversion method. The purpose of the segmented inversion method was to leverage the steady-state properties of Compound ID No. 1. This segmented inversion recovery pulse sequence provides greater T1 weighting, higher spatial resolution, and greater myocardial tissue contrast. Additionally, since imaging is delayed, the entire heart can be imaged. After baseline […] scanning, the balloon was inflated. […]
To assess relative perfusion, labeled microspheres were administered at 3 timepoints in the study. […] At autopsy under ultraviolet light, the hypo-perfused myocardium was differentiated from normal myocardium due to the lack of fluorescence in the hypo-perfused tissue. Based on the fluorescence, a sample of the ischemic territory and a sample of the remote myocardium were taken for ex vivo analysis. These tissue samples were weighed, digested in nitric acid, and analyzed for the elements La, Au, Lu (the three microsphere injections) and gadolinium (Compound ID No. 1) using ICP-MS. […]

Compound: CC(C)C[C@H](NC(=O)[C@@H]1CSSC[C@H](NC(=O)[C@H](Cc2c[nH]cn2)NC(=O)[C@H](Cc2c[nH]c3ccccc23)NC(=O)[C@H](CCCCNC(=O)CC[C@H](C(=O)O)N2CCN(CC(=O)O)CCN(CC(=O)O)CCN(CC(=O)O)CC2)NC(=O)CNC(=O)CC[C@H](C(=O)O)N2CCN(CC(=O)O)CCN(CC(=O)O)CCN(CC(=O)O)CC2)C(=O)N[C@@H]([C@@H](C)O)C(=O)N[C@@H]([C@@H](C)O)C(=O)N[C@@H](CCCCNC(=O)CC[C@H](C(=O)O)N2CCN(CC(=O)O)CCN(CC(=O)O)CCN(CC(=O)O)CC2)C(=O)N[C@@H](Cc2ccccc2)C(=O)N2CCC[C@H]2C(=O)N[C@@H](Cc2c[nH]cn2)C(=O)N[C@@H](Cc2c[nH]cn2)C(=O)N[C@@H](Cc2ccc(O)cc2)C(=O)N1)C(=O)N[C@@H](Cc1ccc(O)cc1)C(=O)N[C@@H](Cc1ccc(-c2ccccc2)cc1)C(N)=O [Compound ID No. 1]
- Kd [1]: 21.1 µM
- ΔCNR relative to EP-3600 (fold higher) [2]: 3 to 4 fold
